Patent publication US8822449B2, “Substituted aminoindanes and analogs thereof, and the pharmaceutical use thereof” (Sanofi, priority 2008, dated 2014)

Target: T1, sodium-proton exchanger of subtype 3 (NHE3) (Homo sapiens, UniProt P48764)
T1 construct: expressed in transfected cells
T1 sequence (P48764 26-834): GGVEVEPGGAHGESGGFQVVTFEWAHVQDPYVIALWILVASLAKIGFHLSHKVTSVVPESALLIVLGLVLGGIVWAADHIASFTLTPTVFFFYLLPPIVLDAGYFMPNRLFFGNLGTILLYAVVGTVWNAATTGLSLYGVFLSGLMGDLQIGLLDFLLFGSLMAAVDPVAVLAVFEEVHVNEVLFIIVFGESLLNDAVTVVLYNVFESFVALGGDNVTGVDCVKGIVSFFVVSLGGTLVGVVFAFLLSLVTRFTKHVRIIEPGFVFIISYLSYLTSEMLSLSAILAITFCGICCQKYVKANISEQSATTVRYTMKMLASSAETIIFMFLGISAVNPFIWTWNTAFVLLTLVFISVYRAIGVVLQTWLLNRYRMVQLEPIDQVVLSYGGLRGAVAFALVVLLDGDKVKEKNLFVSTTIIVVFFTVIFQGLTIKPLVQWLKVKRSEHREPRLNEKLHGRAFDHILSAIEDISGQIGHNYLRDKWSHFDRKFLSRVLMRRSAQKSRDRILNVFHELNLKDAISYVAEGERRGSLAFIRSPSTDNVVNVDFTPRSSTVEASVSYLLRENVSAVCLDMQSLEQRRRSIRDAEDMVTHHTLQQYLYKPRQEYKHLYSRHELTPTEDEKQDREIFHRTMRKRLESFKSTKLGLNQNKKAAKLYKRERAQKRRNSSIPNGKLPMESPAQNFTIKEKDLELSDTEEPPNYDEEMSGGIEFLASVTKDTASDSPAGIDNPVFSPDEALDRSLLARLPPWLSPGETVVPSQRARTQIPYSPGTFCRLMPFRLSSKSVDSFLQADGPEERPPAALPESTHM
Assay: Recovery of intracellular pH (pHi) after acidification in LAP1 cells stably expressing NHE3 (BCECF fluorescence, FLIPR)
Format: cell-based
Settings: LAP1 cells stably expressing NHE3; pH recovery after acidification; range 1 is % inhibition at 10 μM; read-out: Activity range (inhibitory effect on NHE3)

Row | Compound | IC50 [µM] | inhibition at 10 µM [%]
1 | Cc1nnc(C)n1-c1ccc(O[C@H]2c3cc(Cl)ccc3C[C@@H]2N2CC[C@@H](O)C2)c(Cl)c1 [Example 139, (R)-1-{trans-(1S,2S)-6-chloro-1-[2-chloro-4-(3,5-dimethyl-[1,2,4]triazol-4-yl)phenoxy]indan-2-yl}pyrrolidin-3-ol] | < 1 | 
2 | CCN(CC)[C@@H]1Cc2ccccc2[C@H]1Oc1cccc(NC(C)=O)c1 (racemic) [Example 637, N-[3-(rac-trans-(1,2)-2-diethylaminoindan-1-yloxy)phenyl]acetamide] | 1 to 10 | 
3 | CN(CCO)[C@H]1Cc2c(Cl)cc(Cl)cc2[C@@H]1Oc1ccc(S(C)(=O)=O)cc1 [Example 702, 2-{[trans-(1S,2S)-4,6-Dichloro-1-(4-methanesulfonyl-phenoxy)-indan-2-yl]-methyl-amino}-ethanol] | < 1 | 
4 | CN1CC(=O)N(c2ccc(Cl)c(O[C@H]3c4cc(Cl)cc(Cl)c4C[C@@H]3N3CC[C@@H](O)C3)c2)C1=O [Example 430, 3-{4-chloro-3-[(1S,2S)-4,6-dichloro-2-((R)-3-hydroxypyrrolidin-1-yl)indan-1-yloxy]phenyl}-1-methylimidazolidine-2,4-dione] | < 1 | 
5 | NS(=O)(=O)c1ccc(O[C@H]2c3cc(Cl)cc(Cl)c3C[C@@H]2N2CC[C@@H](O)C2)c(F)c1 [Example 741, 4-[trans-(1S,2S)-4,6-Dichloro-2-((R)-3-hydroxy-pyrrolidin-1-yl)-indan-1-yloxy]-3-fluoro-benzenesulfonamide] | < 1 | 
6 | CC(C)c1nc(C(C)(C)C)cn1-c1ccc(O[C@H]2c3cc(Cl)cc(F)c3C[C@@H]2N2CC[C@@H](O)C2)cc1 [Example 724, (R)-1-{trans-(1S,2S)-1-[4-(4-tert-Butyl-2-isopropyl-imidazol-1-yl)-phenoxy]-6-chloro-4-fluoro-indan-2-yl}-pyrrolidin-3-ol] |  | 20 to 50
7 | CC(=O)Nc1cccc(O[C@H]2c3cc(Cl)cc(F)c3C[C@@H]2N2CCNCC2)c1 (racemic) [Example 659, N-[3-(rac-trans-(1,2)-6-chloro-4-fluoro-2-piperazin-1-ylindan-1-yloxy)phenyl]acetamide] | < 1 | 
8 | CS(=O)(=O)c1ccc(O[C@H]2c3cc(Cl)cc(F)c3C[C@@H]2NC2CCCC2)cc1 [Example 751, [trans-(1S,2S)-6-Chloro-4-fluoro-1-(4-methanesulfonyl-phenoxy)-indan-2-yl]-cyclopentyl-amine] | 1 to 10 | 
9 | CC1(C)NC(=O)N(c2ccc(O[C@H]3c4cc(Cl)cc(Cl)c4C[C@@H]3N3CC[C@@H](O)C3)cc2)C1=O [Example 425, 3-{4-[(1S,2S)-4,6-dichloro-2-((R)-3-hydroxypyrrolidin-1-yl)indan-1-yloxy]phenyl}-5,5-dimethylimidazolidine-2,4-dione] | < 1 | 

More lines, now with the values ahead:

Row | IC50 [µM] | inhibition at 10 µM [%] | Compound
10 | 1 to 10 |  | Nc1ccc2c(O[C@H]3c4ccccc4CC[C@@H]3N3CCC[C@@H](N)C3)cccc2c1 (racemic) [Example 80, (R)-1-[rac-trans-(1,2)-1-(6-aminonaphthalen-1-yloxy)-1,2,3,4-tetrahydronaphthalen-2-yl]piperidin-3-ylamine]
11 | 1 to 10 |  | Cc1c(Cl)cccc1O[C@@H]1c2ccccc2C[C@H]1N1C[C@H]2CNC[C@H]2C1 (racemic) [Example 6, 2-[rac-trans-(1,2)-1-(3-chloro-2-methylphenoxy)indan-2-yl]octahydropyrrolo[3,4-c]pyrrole]
12 | 1 to 10 |  | CC(=O)Nc1ccc(OC2c3ccccc3CC2N2CCCC2)cc1 (racemic) [Example 666, N-[4-(rac-trans-(1,2)-2-pyrrolidin-1-ylindan-1-yloxy)phenyl]acetamide]
13 |  | 20 to 50 | N[C@H]1CCCN([C@H]2CCc3ccccc3[C@@H]2Oc2ccc(N3C(=O)CCC3=O)cc2)C1 (racemic) [Example 328, 1-{4-[rac-trans-(1,2)-2-((S)-3-aminopiperidin-1-yl)-1,2,3,4-tetrahydronaphthalen-1-yloxy]phenyl}pyrrolidine-2,5-dione]
14 | 1 to 10 |  | NC(=O)c1ccc(O[C@@H]2c3ccccc3C[C@H]2N2CCC(N)C2)cc1 (mixture of isomers) [Example 544, 4-[rac-trans-(1,2)-2-(3-aminopyrrolidin-1-yl)indan-1-yloxy]benzamide]
